Test results taken from article PMC4050313, “Panaxadiol and Panaxatriol Derivatives as Anti-Hepatitis B Virus Inhibitors” (Natural Products and Bioprospecting, 2014).

Legend:
HepG 2.2.15 cells = assay: Cytotoxicity, modified MTT method; format: cell-based; details: 50 % cytotoxicity concentration in HepG 2.2.15 cells; means of two independent experiments
Method: (§1) Based on our previous description, inhibitory activity on HBV (HBsAg, HBeAg and HBV DNA) was evaluated. […] Cytotoxicity was assayed with a modified 3-(4,5-dimethylthiazole-2-yl)-2,5-diphenyltetrazolium bromide (MTT) method (Gibco Invitrogen, Carlsbad, CA, USA). The anti-HBV antigen secretion activities were determined by the enzyme linked immunosorbent assay (ELISA; Autobio Diagnostics Co., Ltd, China). A real-time PCR assay was applied to detect the inhibitory activity on HBV DNA replication.

HBsAg secretion = assay: microbe, parasite or virus in culture; format: cell-based, Hepatitis B virus; details: for IC50: HepG 2.2.15 cells, means of two independent experiments, read-out: HBsAg IC50; for growth of inhibition on HBsAg secretion: relative to inactive compound 8
Method: as §1

HBeAg secretion = assay: microbe, parasite or virus in culture; format: cell-based, Hepatitis B virus; details: HepG 2.2.15 cells; means of two independent experiments; read-out: HBeAg IC50
Method: as §1

HBV DNA replication = assay: Inhibition of HBV DNA replication, real-time PCR, HepG 2.2.15 cells; format: cell-based, Hepatitis B virus; details: for IC50: HepG 2.2.15 cells, means of two independent experiments; for growth of inhibition on HBV DNA replication: relative to inactive compound 8
Method: as §1

SMILES: CC(=O)OC1CCC2(C)C(CCC3(C)C2CC(O)C2C(C4(C)CCCC(C)(C)O4)CCC23C)C1(C)C (stereo not drawn) [Compound 1, 3-O-Acetly-panaxadiol]
- CC50 (HepG 2.2.15 cells): > 2.06 mM

SMILES: CC1(C)CCCC(C)(C2CCC3(C)C2C(O)CC2C4(C)CCC(OC(=O)C5CCCC5)C(C)(C)C4CCC23C)O1 (stereo not drawn) [Compound 2, 3-O-Cyclopentanecarbonyl panaxadiol]
- IC50 (HBsAg secretion): 1250 µM
- IC50 (HBeAg secretion): > 2.14 mM
- IC50 (HBV DNA replication): 515 µM
- CC50 (HepG 2.2.15 cells): > 2.14 mM

SMILES: CC1(C)CCCC(C)(C2CCC3(C)C2C(O)CC2C4(C)CCC(OC(=O)c5ccco5)C(C)(C)C4CCC23C)O1 (stereo not drawn) [Compound 3, 3-O-(2′-Furoyl) panaxadiol]
- IC50 (HBsAg secretion): 834 µM
- IC50 (HBeAg secretion): 1.18 mM
- IC50 (HBV DNA replication): 50.3 µM
- CC50 (HepG 2.2.15 cells): 1.18 mM

SMILES: CC1(C)CCCC(C)(C2CCC3(C)C2C(O)CC2C4(C)CCC(OC(=O)c5cccs5)C(C)(C)C4CCC23C)O1 (stereo not drawn) [Compound 4, 3-O-(2′-Thenoyl) panaxadiol]
- IC50 (HBsAg secretion): 30.8 µM
- IC50 (HBeAg secretion): 0.0182 mM
- IC50 (HBV DNA replication): 16.5 µM
- CC50 (HepG 2.2.15 cells): > 1.91 mM

SMILES: Cc1ccsc1C(=O)OC1CCC2(C)C(CCC3(C)C2CC(O)C2C(C4(C)CCCC(C)(C)O4)CCC23C)C1(C)C (stereo not drawn) [Compound 5, 3-O-(3′-Methyl)-thenoyl panaxadiol]
- IC50 (HBsAg secretion): > 2020 µM
- IC50 (HBeAg secretion): > 2.02 mM
- IC50 (HBV DNA replication): > 505 µM
- CC50 (HepG 2.2.15 cells): > 2.02 mM

SMILES: CC1(C)CCC[C@](C)([C@H]2CC[C@]3(C)[C@@H]2[C@H](O)C[C@@H]2[C@@]4(C)CC[C@H](OC(=O)c5sccc5Cl)C(C)(C)[C@@H]4CC[C@]23C)O1 [Compound 6, 3-O-(3′-Chloro)-thenoyl panaxadiol]
- IC50 (HBeAg secretion): 0.28 mM
- IC50 (HBV DNA replication): 43.2 µM
- CC50 (HepG 2.2.15 cells): > 1.64 mM

SMILES: CC1(C)CCCC(C)(C2CCC3(C)C2C(O)CC2C4(C)CCC(OC(=O)c5cc6ccccc6s5)C(C)(C)C4CCC23C)O1 (stereo not drawn) [Compound 7, 3-O-Benzothiophene-2-carboxyl panaxadiol]
- CC50 (HepG 2.2.15 cells): > 1.69 mM

SMILES: CC1(C)CCC[C@](C)([C@H]2CC[C@]3(C)[C@@H]2[C@H](O)C[C@@H]2[C@@]4(C)CC[C@H](OC(=O)c5ccccc5)C(C)(C)[C@@H]4CC[C@]23C)O1 [Compound 8, 3-O-Benzoyl panaxadiol]
- IC50 (HBsAg secretion): > 2000 µM
- IC50 (HBeAg secretion): > 2 mM
- IC50 (HBV DNA replication): 501 µM
- CC50 (HepG 2.2.15 cells): > 2 mM

SMILES: CC1(C)CCCC(C)(C2CCC3(C)C2C(O)CC2C4(C)CCC(OC(=O)c5ccccc5O)C(C)(C)C4CCC23C)O1 (stereo not drawn) [Compound 9, 3-O-Salicyloyl panaxadiol]
- IC50 (HBsAg secretion): 43.3 µM
- growth of inhibition on HBsAg secretion (HBsAg secretion): 60 folds
- IC50 (HBV DNA replication): 9.02 µM
- growth of inhibition on HBV DNA replication (HBV DNA replication): 60 folds
- CC50 (HepG 2.2.15 cells): 0.0444 mM

SMILES: CC1(C)CCC[C@](C)([C@H]2CC[C@]3(C)[C@@H]2[C@H](O)C[C@@H]2[C@@]4(C)CC[C@H](OC(=O)c5cc(O)c(O)c(O)c5)C(C)(C)[C@@H]4CC[C@]23C)O1 [Compound 10, 3-O-Galloyl panaxadiol]
- IC50 (HBsAg secretion): 45.6 µM
- growth of inhibition on HBsAg secretion (HBsAg secretion): 60 folds
- IC50 (HBeAg secretion): > 1.44 mM
- IC50 (HBV DNA replication): 7.27 µM
- growth of inhibition on HBV DNA replication (HBV DNA replication): 60 folds
- CC50 (HepG 2.2.15 cells): 0.0259 mM

SMILES: CC1(C)CCCC(C)(C2CCC3(C)C2C(O)CC2C4(C)CCC(OC(=O)c5cccnc5)C(C)(C)C4CCC23C)O1 (stereo not drawn) [Compound 11, 3-O-Nicotinoyl panaxadiol]
- IC50 (HBsAg secretion): 1150 µM
- IC50 (HBeAg secretion): 1.15 mM
- IC50 (HBV DNA replication): 117 µM
- CC50 (HepG 2.2.15 cells): 1.15 mM

SMILES: CCCCC(=O)O[C@H]1CC[C@]2(C)[C@H]3C[C@@H](O)[C@@H]4[C@@H]([C@@]5(C)CCCC(C)(C)O5)CC[C@@]4(C)[C@]3(C)CC[C@H]2C1(C)C [Compound 12, 3-O-Valeryl panaxadiol]
- IC50 (HBV DNA replication): > 1580 µM
- CC50 (HepG 2.2.15 cells): > 1.58 mM

SMILES: CCOCC(=O)O[C@H]1CC[C@]2(C)[C@H]3C[C@@H](O)[C@@H]4[C@@H]([C@@]5(C)CCCC(C)(C)O5)CC[C@@]4(C)[C@]3(C)CC[C@H]2C1(C)C [Compound 13, 3-O-2′-Ethyoxyl-acetyl panaxadiol]
- IC50 (HBsAg secretion): 589 µM
- IC50 (HBeAg secretion): > 2.36 mM
- IC50 (HBV DNA replication): > 591 µM
- CC50 (HepG 2.2.15 cells): 1.49 mM

SMILES: CC1(C)CCCC(C)(C2CCC3(C)C2C(O)CC2C4(C)CCC(OC(=O)CCC(=O)O)C(C)(C)C4CCC23C)O1 (stereo not drawn) [Compound 14, 3-O-Succinyl panaxadiol]
- IC50 (HBsAg secretion): 199 µM
- IC50 (HBeAg secretion): 0.169 mM
- IC50 (HBV DNA replication): 16.7 µM
- CC50 (HepG 2.2.15 cells): 0.179 mM

SMILES: CC1(C)CCCC(C)(C2CCC3(C)C2C(O)CC2C4(C)CCC(OC(=O)CCCC(=O)O)C(C)(C)C4CCC23C)O1 (stereo not drawn) [Compound 15, 3-O-Glutaryl panaxadiol]
- IC50 (HBsAg secretion): 53.8 µM
- IC50 (HBeAg secretion): 0.101 mM
- IC50 (HBV DNA replication): 28.2 µM
- CC50 (HepG 2.2.15 cells): 0.0866 mM

SMILES: CC1(C)CCCC(C)(C2CCC3(C)C2C(O)CC2C4(C)CCC(OC(=O)COCC(=O)O)C(C)(C)C4CCC23C)O1 (stereo not drawn) [Compound 16, 3-O-Diglycolyl panaxadiol]
- IC50 (HBsAg secretion): > 1700 µM
- IC50 (HBeAg secretion): 0.901 mM
- IC50 (HBV DNA replication): 51.9 µM
- CC50 (HepG 2.2.15 cells): > 1.7 mM

SMILES: CC(CC(=O)O)CC(=O)O[C@H]1CC[C@]2(C)[C@H]3C[C@@H](O)[C@@H]4[C@@H]([C@@]5(C)CCCC(C)(C)O5)CC[C@@]4(C)[C@]3(C)CC[C@H]2C1(C)C (stereo partly drawn) [Compound 17, 3-O-(3′-Methyl) diglutaryl panaxadiol]
- IC50 (HBV DNA replication): 86.3 µM
- CC50 (HepG 2.2.15 cells): 0.934 mM

SMILES: CC(C)(CC(=O)O)CC(=O)O[C@H]1CC[C@]2(C)[C@H]3C[C@@H](O)[C@@H]4[C@@H]([C@@]5(C)CCCC(C)(C)O5)CC[C@@]4(C)[C@]3(C)CC[C@H]2C1(C)C [Compound 18, 3-O-(3′,3′-Dimethyl) glutaryl panaxadiol]
- IC50 (HBsAg secretion): 933 µM
- IC50 (HBV DNA replication): 124 µM
- CC50 (HepG 2.2.15 cells): 0.314 mM

SMILES: CC1(C)CCCC(C)(C2CCC3(C)C2C(O)CC2C4(C)CCC(OC(=O)CC5(CC(=O)O)CCCC5)C(C)(C)C4CCC23C)O1 (stereo not drawn) [Compound 19, 3-O-(3′,3′-tetramethylene)diglutaryl panaxadiol]
- IC50 (HBsAg secretion): > 1730 µM
- IC50 (HBeAg secretion): > 1.73 mM
- IC50 (HBV DNA replication): > 432 µM
- CC50 (HepG 2.2.15 cells): > 1.73 mM

SMILES: CC(=O)OC1CC2(C)C(CC(O)C3C(C4(C)CCCC(C)(C)O4)CCC32C)C2(C)CCC(OC(C)=O)C(C)(C)C12 (stereo not drawn) [Compound 20, 3,6-O-Diacetyl-panaxatriol]
- IC50 (HBsAg secretion): > 2100 µM
- IC50 (HBeAg secretion): > 2.1 mM
- IC50 (HBV DNA replication): 545 µM
- CC50 (HepG 2.2.15 cells): > 2.1 mM

SMILES: CC1(C)CCCC(C)(C2CCC3(C)C2C(O)CC2C4(C)CCC(OC(=O)CCC(=O)O)C(C)(C)C4C(OC(=O)CCC(=O)O)CC23C)O1 (stereo not drawn) [Compound 21, 3,6-O-Disuccinyl panaxatriol]
- IC50 (HBsAg secretion): > 1940 µM
- IC50 (HBeAg secretion): > 1.94 mM
- IC50 (HBV DNA replication): > 485 µM
- CC50 (HepG 2.2.15 cells): > 1.94 mM

SMILES: CC1(C)CCCC(C)(C2CCC3(C)C2C(O)CC2C4(C)CCC(OC(=O)c5ccco5)C(C)(C)C4C(OC(=O)c4ccco4)CC23C)O1 (stereo not drawn) [Compound 22, 3,6-O-Di(2′-furoyl)-panaxatriol]
- IC50 (HBsAg secretion): > 1280 µM
- IC50 (HBeAg secretion): > 1.28 mM
- IC50 (HBV DNA replication): > 320 µM
- CC50 (HepG 2.2.15 cells): 0.53 mM

SMILES: CC1(C)CCCC(C)(C2CCC3(C)C2C(O)CC2C4(C)CCC(OC(=O)c5cccs5)C(C)(C)C4C(OC(=O)c4cccs4)CC23C)O1 (stereo not drawn) [Compound 23, 3,6-O-Di(2′-thenoyl)-panaxatriol]
- IC50 (HBV DNA replication): > 2090 µM
- CC50 (HepG 2.2.15 cells): > 2.09 mM

SMILES: CC(=O)OC1CCC2(C)C(CCC3(C)C2CC(=O)C2C(C4(C)CCCC(C)(C)O4)CCC23C)C1(C)C [Compound 26, (20R)-20,25-Epoxy-3-O-acetoyl-dammaran-12-dione]
- CC50 (HepG 2.2.15 cells): > 2.28 mM

SMILES: CC1(C)CCCC(C)(C2CCC3(C)C2C(=O)CC2C4(C)CCC(OC(=O)c5cccs5)C(C)(C)C4CCC23C)O1 [Compound 27, (20R)-20,25-Epoxy-3-O-(2′-thenoyl)-dammaran-12-dione]
- CC50 (HepG 2.2.15 cells): > 2.16 mM

SMILES: O=C(O)c1cccs1 [TA, thiophenezoic acid, reference compound]
- IC50 (HBV DNA replication): 1770 µM
